According to patent publication US12371416B2, “Compounds for inhibition of fibroblast activation protein” (USTAV ORGANICKE CHEMIE A BIOCHEMIE AV CR, V. V. I., priority 2020, dated 2025):
pIC50: −log10 of the molar value. “Also recorded” adds a separate entry of the source.

Key:
DPPIV = target: T1, DPPIV (Homo sapiens, UniProt P27487); assay: Inhibitory activity against human recombinant DPPIV (IC50); assay type: biochemical; conditions: selected substances
T1 construct: purchased R&D Systems 9168-SE-010
Procedure: (§1) Data were analysed by nonlinear regression with GraphPrism (version 8.3.1). The measurement results are given as values of the mean inhibitory concentration IC50 and its linearized form via the negative decimal logarithm of pIC50.

PREP = target: T2, PREP (Homo sapiens, UniProt P48147); assay: Inhibitory activity against human recombinant PREP (IC50); assay type: biochemical; conditions: selected substances
T2 construct: purchased R&D Systems 4308-SE-010
T2 sequence (P48147 1-710): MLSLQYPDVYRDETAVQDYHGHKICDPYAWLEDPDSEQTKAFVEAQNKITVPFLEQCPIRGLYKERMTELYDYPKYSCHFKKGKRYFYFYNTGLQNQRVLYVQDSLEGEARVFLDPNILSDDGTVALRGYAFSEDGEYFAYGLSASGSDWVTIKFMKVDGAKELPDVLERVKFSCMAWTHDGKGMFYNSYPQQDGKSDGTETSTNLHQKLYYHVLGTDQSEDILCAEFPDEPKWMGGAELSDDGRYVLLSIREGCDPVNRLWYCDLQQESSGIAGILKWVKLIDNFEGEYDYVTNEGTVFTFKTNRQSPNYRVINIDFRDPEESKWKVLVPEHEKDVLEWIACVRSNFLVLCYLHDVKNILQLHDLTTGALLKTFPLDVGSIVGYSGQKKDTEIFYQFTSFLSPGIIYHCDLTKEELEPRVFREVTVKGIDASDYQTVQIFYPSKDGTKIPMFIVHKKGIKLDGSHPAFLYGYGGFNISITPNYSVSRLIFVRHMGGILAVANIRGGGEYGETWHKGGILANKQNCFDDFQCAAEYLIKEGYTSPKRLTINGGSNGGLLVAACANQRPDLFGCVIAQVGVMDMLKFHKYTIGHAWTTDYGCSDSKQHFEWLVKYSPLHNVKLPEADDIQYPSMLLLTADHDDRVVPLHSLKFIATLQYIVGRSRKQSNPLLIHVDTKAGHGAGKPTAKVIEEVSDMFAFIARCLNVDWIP
Procedure: as §1

Hela = assay: Cytotoxicity (XTT) on Hela cells; assay type: cell-based, human; conditions: 72 h
Procedure: (§2) The cytotoxicity of the substances was measured on four tumour cell lines: CCRF-CEM, HepG2, Hela, HL-60. All cell lines were purchased from ATCC (Manassas, VA, USA). Cells were cultured in RPMI-1640 or DMEM medium containing 10% (wt/wt) FBS and 1% (wt/wt) GlutaMax. Cells were distributed at 2,000-10,000 per well of a 384-well plate (Thermo Fisher Scientific, Waltham, USA) and incubated overnight. After 24 hours, test substance solutions (10 or 100 μmol·l^−1) were added to the wells and the cells were incubated with the test substances at 37° C. and 5% (vol./vol.) CO2 for another 72 h. XTT dye (XTT cell proliferation kit II, Roche Diagnostics GmbH, Mannheim, Germany) was added to the wells according to the manufacturer's protocol. After one hour of incubation with the dye, the absorbance at 495 nm was measured and the signal was compared with the control (100% viability=cells without test substance).

HepG2 = assay: Cytotoxicity (XTT) on HepG2 cells; assay type: cell-based, human; conditions: 72 h
Procedure: as §2

CCRF-CEM = assay: Cytotoxicity (XTT) on CCRF-CEM cells; assay type: cell-based, human; conditions: 72 h
Procedure: as §2

HL-60 = assay: Cytotoxicity (XTT) on HL-60 cells; assay type: cell-based, human; conditions: 72 h
Procedure: as §2

[1] = Stability in human plasma; assay type: in vitro ADME; conditions: 37° C.; for Stability in human plasma: up to 120 minutes
Procedure: (§3) An aliquot of plasma was extracted with 120 μl of methanol containing caffeine as an internal standard. The solution was vortexed (5 min) and centrifuged (20500 g; 10 min), the supernatant was transferred to a vial, and 1 μl of the mixture was used for LC-MS analysis. […] Results are presented as the percentage of test substance versus control (aliquot taken at time 0).

[2] = Stability in murine microsomes; assay type: in vitro ADME; conditions: for Stability in murine microsomes: murine microsomes 0.5 mg/ml, 5 μmol·l^−1 test substance, NADPH
Procedure: The incubation of 37.5 μl of the mixture was terminated by the addition of 150 μl of acetonitrile containing caffeine as an internal standard, cooled to 0° C. The mixture was vortexed (5 min) and centrifuged (20500 g; 10 min). The supernatant was transferred to a vial, and 1 μl of the mixture was used for LC-MS analysis. […] Results are presented as the percentage of test substance versus control (aliquot taken at time 0).

[3] = Stability in murine plasma; assay type: in vitro ADME; conditions: 37° C.; for Stability in murine plasma: up to 120 minutes
Procedure: as §3

[4] = system: four human tumour cell lines; assay: Cytotoxicity on four human tumour cell lines (summary statement); assay type: cell-based; conditions: two concentrations differing by 1 order of magnitude
Procedure: as §2

T1 sequence (P27487 whole entry): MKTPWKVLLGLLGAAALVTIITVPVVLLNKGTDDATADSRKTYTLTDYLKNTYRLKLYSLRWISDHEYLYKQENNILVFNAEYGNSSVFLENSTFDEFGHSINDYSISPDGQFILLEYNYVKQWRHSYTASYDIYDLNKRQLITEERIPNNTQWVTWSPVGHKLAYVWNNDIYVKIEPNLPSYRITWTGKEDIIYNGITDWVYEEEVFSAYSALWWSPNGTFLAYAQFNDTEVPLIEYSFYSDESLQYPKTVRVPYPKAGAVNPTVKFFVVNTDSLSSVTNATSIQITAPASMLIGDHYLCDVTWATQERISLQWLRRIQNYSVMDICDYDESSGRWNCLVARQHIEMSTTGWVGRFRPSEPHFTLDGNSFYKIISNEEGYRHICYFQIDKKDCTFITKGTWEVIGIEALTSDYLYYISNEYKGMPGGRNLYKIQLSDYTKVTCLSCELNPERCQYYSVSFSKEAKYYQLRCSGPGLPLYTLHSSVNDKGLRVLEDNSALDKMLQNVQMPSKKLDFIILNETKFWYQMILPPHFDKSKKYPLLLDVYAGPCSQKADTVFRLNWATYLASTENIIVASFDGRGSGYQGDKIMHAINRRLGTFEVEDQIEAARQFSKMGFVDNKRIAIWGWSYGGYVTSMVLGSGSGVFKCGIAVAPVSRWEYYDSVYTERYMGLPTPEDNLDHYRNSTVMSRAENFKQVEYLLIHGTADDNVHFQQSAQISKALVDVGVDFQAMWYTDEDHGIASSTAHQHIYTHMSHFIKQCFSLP

SMILES	pIC50 (DPPIV)	pIC50 (PREP)	Cell viability HeLa S3 10 μM (Hela) [% vs. control]	Cell viability HeLa S3 100 μM (Hela) [% vs. control]	Cell viability HepG2 10 μM (HepG2) [% vs. control]	Cell viability HepG2 100 μM (HepG2) [% vs. control]	Cell viability CEM 10 μM (CCRF-CEM) [% vs. control]	Cell viability CEM 100 μM (CCRF-CEM) [% vs. control]	Cell viability HL60 10 μM (HL-60) [% vs. control]	Cell viability HL60 100 μM (HL-60) [% vs. control]	Stability in human plasma [1]	Stability in murine microsomes [2]	Stability in murine plasma [3]	substance degraded within 20 minutes ([2]; murine microsomes, 20 minutes) [%]	substance degraded within 20 minutes [3] [%]	substance degraded within 120 minutes ([1]; 120 minutes) [%]	Cytotoxicity [4]
CCCCCNC(=O)C(=O)[C@@H]1CCCN1C(=O)CNC(=O)c1ccnc2ccccc12 [Compound 3j, (S)—N-(2-Oxo-2-(2-(2-oxo-2-(pentylamino)acetyl)pyrrolidin-1-yl)ethyl)quinoline-4-carboxamide]	< 5.40	9.40	93	109	76	124	94	119	109	123							
O=C(NCc1ccccc1)C(=O)[C@@H]1CCCN1C(=O)CNC(=O)c1ccnc2ccccc12 [Compound 3a, (S)—N-(2-(2-(2-(Benzylamino)-2-oxoacetyl)pyrrolidin-1-yl)-2-oxoethyl)quinoline-4-carboxamide]			119	96	103	107	105	94	94	106	stable	stable	stable				
CC(C)(C)OC(=O)CNC(=O)C(=O)[C@@H]1CCCN1C(=O)CNC(=O)c1ccnc2ccccc12 [Compound 3l, tert-Butyl (S)-(2-oxo-2-(1-((quinoline-4-carbonyl)glycyl)pyrrolidin-2-yl)acetyl)glycinate]	< 5.40	9.22	95	100	97	109	104	121	104	111							
COC(=O)[C@H](CCC(=O)OCc1ccccc1)NC(=O)CNC(=O)C(=O)[C@@H]1CCCN1C(=O)CNC(=O)c1ccnc2ccccc12 [Compound 5h, 5-Benzyl 1-methyl (2-oxo-2-((S)-1-((quinoline-4-carbonyl)glycyl)pyrrolidin-2-yl)acetyl)glycyl-L-glutamate]			116	93	112	105	114	103	109	106	stable	unstable	degrade immediately	100	100		
COc1ccc(CCNC(=O)C(=O)[C@@H]2CCCN2C(=O)CNC(=O)c2ccnc3ccccc23)cc1OC [Compound 3e, (S)—N-(2-(2-(2-((3,4-Dimethoxyphenethyl)amino)-2-oxoacetyl)pyrrolidin-1-yl)-2-oxoethyl)quinoline-4-carboxamide]	< 5.40	9.30	104	86	92	90	108	85	101	106	stable	partially stable	stable				
COC(=O)[C@H](Cc1ccccc1)NC(=O)CNC(=O)C(=O)[C@@H]1CCCN1C(=O)CNC(=O)c1ccnc2ccccc12 [Compound 5f, Methyl (2-oxo-2-((S)-1-((quinoline-4-carbonyl)glycyl)pyrrolidin-2-yl)acetyl)glycyl-L-phenylalaninate]		9.52	96	100	78	121	98	72	114	98	stable	partially stable	degrade immediately		100	25	
COc1ccc(CNC(=O)C(=O)[C@@H]2CCCN2C(=O)CNC(=O)c2ccnc3ccccc23)cc1OC [Compound 3b, (S)—N-(2-(2-(2-((3,4-Dimethoxybenzyl)amino)-2-oxoacetyl)pyrrolidin-1-yl)-2-oxoethyl)quinoline-4-carboxamide]	< 5.40	9.40	106	78	97	92	106	88	88	100	stable; also recorded: excellent stability	stable; also recorded: high stability	stable; also recorded: high stability				low cytotoxicity
COC(=O)[C@H](CCCCNC(=O)OCc1ccccc1)NC(=O)CNC(=O)C(=O)[C@@H]1CCCN1C(=O)CNC(=O)c1ccnc2ccccc12 [Compound 5i]		9.59	94	98	89	101	107	107	104	101							
